The values below come from US20110028360A1, “ORGANIC CORROSION INHIBITOR PACKAGE FOR ORGANIC ACIDS” (M-I DRILLING FLUIDS U.K. LIMITED, priority 2008, published 2011).

Data set [1] is described as follows: EC50 Toxicity according to ISO/DP 10253. The method, then: (§1) Propoxylated prop-2-yn-1-ol, as a raw material for the corrosion inhibitor compositions disclosed herein, was tested for ecotoxicology. Biodegradation was measured according to OECD 301B. EC50 Toxicity was measured according to ISO/DP 10253. Bioaccumulation log Pow was measured according to OECD 117.

Data set [2] can be described thus: Bioaccumulation log Pow according to OECD 117. Type of data set: physicochemical. The method, then:
as §1

Data set [3] in a line: Biodegradation according to OECD 301B. The method, then: as §1

propoxylated prop-2-yn-1-ol returned a Toxicity in data set [1] of 100 mg/L. The “Bioaccumulation Log Pow” value in data set [2] is 2. The Biodegradation in data set [3] was 100% (OECD 301B).
